Test results as given in ChEMBL document CHEMBL1681686, “Discovery of N-methyl-1-(1-phenylcyclohexyl)methanamine, a novel triple serotonin, norepinephrine, and dopamine reuptake inhibitor” (Bioorg Med Chem Lett, 2011).

Tests used:
Type in all cases: ADME, organism-based
Conditions in all cases: in vivo; call rule not given here
Plasma [1] = test: Drug uptake in mouse plasma at 30 mg/kg, po; set-up: dose 30 mg/kg, route oral
Plasma [2] = test: Drug uptake in mouse plasma at 3 mg/kg, po; set-up: dose 3 mg/kg, route oral
Brain [3] = test: Drug uptake in mouse brain at 10 mg/kg, po; set-up: dose 10 mg/kg, route oral
Brain [4] = test: Drug uptake in mouse brain at 30 mg/kg, po; set-up: dose 30 mg/kg, route oral
Brain [5] = test: Drug uptake in mouse brain at 3 mg/kg, po; set-up: dose 3 mg/kg, route oral
Plasma [6] = test: Drug uptake in mouse plasma at 10 mg/kg, po; set-up: dose 10 mg/kg, route oral

SMILES | Drug uptake (Plasma [1]) | Drug uptake (Plasma [2]) | Drug uptake (Brain [3]) | Drug uptake (Brain [4]) | Drug uptake (Brain [5]) | Drug uptake (Plasma [6])
CNCC1(c2ccc3ccccc3c2)CCCCC1.Cl | 120 ng/mL | 8 ng/mL | 306 ng/g | 2175 ng/g | 123 ng/g | 21 ng/mL
CNCC1(c2ccc(Cl)c(Cl)c2)CCCCC1 | – | – | – | Active | – | –
CNCC1(c2ccc(Cl)c(Cl)c2)CCCCC1.Cl | 227 ng/mL | 11 ng/mL | 2166 ng/g | 7464 ng/g | 546 ng/g | 50 ng/mL
